Experimental findings from PubChem BioAssay (NCI) are described below.

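Exposure lasted 48 hours, with cells grown in 96-well plates and compounds tested at five concentrations. TGI denotes the concentration required for complete inhibition of growth.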

Test systems include MALME-3M melanoma; SK-MEL-28 melanoma; COLO 205 colon; SNB-19 CNS; U251 CNS; OVCAR-8 ovarian; 786-0 renal; SNB-75 CNS; EKVX NSCLC.
Holding throughout (test): NCI-60 cell line screen, 48 h

For the compound `NC1=Nc2ccccc2Sc2ccccc21`, the TGI with MALME-3M melanoma, with SK-MEL-28 melanoma, with COLO 205 colon, with SNB-19 CNS, with U251 CNS and in the assay on OVCAR-8 ovarian was greater than 100 µM each time. In addition, the TGI is greater than 100 µM in the assay with 786-0 renal, 53.2 µM with SNB-75 CNS and greater than 100 µM in the assay on EKVX NSCLC.
With `CCN1CCC(O)(/C=C/c2ccccc2)C(C(=O)/C=C/c2ccccc2)C1` (stereo not drawn), the TGI in the assay on MALME-3M melanoma was 5.09 µM; with SK-MEL-28 melanoma, 3.91 µM; in the assay with COLO 205 colon, 3.49 µM; in the assay with SNB-19 CNS it was 22.3 µM; in the assay with U251 CNS, 6.67 µM; in the assay with OVCAR-8 ovarian it was 4.55 µM. The TGI with 786-0 renal turned out to be 3.32 µM; in the assay on SNB-75 CNS, 19.2 µM; with EKVX NSCLC, 11.8 µM.
For the compound `COc1cc(CCc2ccncc2)cc(OC)c1OC`, the TGI in the assay on MALME-3M melanoma, with SK-MEL-28 melanoma, in the assay on COLO 205 colon, in the assay on SNB-19 CNS, in the assay on U251 CNS and with OVCAR-8 ovarian was greater than 100 µM throughout. Besides, the TGI in the assay with 786-0 renal, with SNB-75 CNS and with EKVX NSCLC was greater than 100 µM each time.
As for `CC1OC(=O)N2CCC=CC12` (stereo not drawn), the TGI with MALME-3M melanoma, in the assay on SK-MEL-28 melanoma, in the assay on COLO 205 colon, in the assay on SNB-19 CNS, with U251 CNS and in the assay on OVCAR-8 ovarian was greater than 100 µM throughout. The TGI in the assay on 786-0 renal, in the assay with SNB-75 CNS and with EKVX NSCLC was greater than 100 µM in each case.
For the compound `CC1=CC(=O)N2C(OC[C@@H]2c2ccccc2)O1` (stereo partly drawn), the TGI in the assay with MALME-3M melanoma, in the assay on SK-MEL-28 melanoma, with COLO 205 colon, with SNB-19 CNS, in the assay on U251 CNS and in the assay on OVCAR-8 ovarian was greater than 100 µM in each case. The TGI in the assay on 786-0 renal, in the assay on SNB-75 CNS and in the assay with EKVX NSCLC was greater than 100 µM throughout.
As for `Cc1c(Cl)cccc1NC(=O)C(=O)c1c(O)c2ccc(O)cc2oc1=O`, the TGI with MALME-3M melanoma, in the assay on SK-MEL-28 melanoma, in the assay on COLO 205 colon, with SNB-19 CNS, with U251 CNS and in the assay with OVCAR-8 ovarian was greater than 100 µM throughout. For the same compound, the TGI in the assay on 786-0 renal, in the assay with SNB-75 CNS and in the assay with EKVX NSCLC was greater than 100 µM in each case.
As for `CC(CC(=O)Nc1ccc(NC(=O)CC(C)N=NC(N)=O)cc1)N=NC(N)=O` (stereo not drawn), the TGI in the assay with MALME-3M melanoma, in the assay with SK-MEL-28 melanoma, in the assay on COLO 205 colon, in the assay with SNB-19 CNS, in the assay with U251 CNS and in the assay with OVCAR-8 ovarian was greater than 100 µM in each case. The TGI in the assay with 786-0 renal, in the assay with SNB-75 CNS and in the assay on EKVX NSCLC was greater than 100 µM throughout.
On to `Oc1ccc(O)c(-n2cccn2)c1-n1cccn1`, for which the TGI with MALME-3M melanoma was greater than 100 µM; in the assay on SK-MEL-28 melanoma, greater than 100 µM; in the assay with COLO 205 colon, 90.1 µM; in the assay with SNB-19 CNS it was greater than 100 µM; with U251 CNS, greater than 100 µM; in the assay on OVCAR-8 ovarian, greater than 100 µM. Further, the TGI in the assay with 786-0 renal, in the assay with SNB-75 CNS and in the assay on EKVX NSCLC was greater than 100 µM each time.
Consider `Cc1ccc(C)c(NC(=O)C(=O)Nn2c(=S)[nH]c3ccccc3c2=O)c1`, for which the TGI in the assay with MALME-3M melanoma, in the assay on SK-MEL-28 melanoma, with COLO 205 colon, in the assay on SNB-19 CNS, in the assay on U251 CNS and with OVCAR-8 ovarian was greater than 100 µM in each case. Moreover, the TGI with 786-0 renal, with SNB-75 CNS and in the assay with EKVX NSCLC was greater than 100 µM in each case.
In the case of `CCCCOP1(=O)CC(C)=C(Cl)C(C)(OC)C1` (stereo not drawn), the TGI in the assay on MALME-3M melanoma, in the assay with SK-MEL-28 melanoma, in the assay with COLO 205 colon, with SNB-19 CNS, with U251 CNS and in the assay on OVCAR-8 ovarian was greater than 100 µM each time. Besides, the TGI in the assay with 786-0 renal, in the assay with SNB-75 CNS and in the assay on EKVX NSCLC was greater than 100 µM throughout.
In the case of `COC1CC(n2cc(F)c(N)nc2=O)OC1CO` (stereo not drawn), the TGI with MALME-3M melanoma, with SK-MEL-28 melanoma, in the assay with COLO 205 colon, in the assay with SNB-19 CNS, with U251 CNS and with OVCAR-8 ovarian was greater than 100 µM throughout. Besides, the TGI with 786-0 renal, in the assay with SNB-75 CNS and in the assay with EKVX NSCLC was greater than 100 µM throughout.
For `O=C1C(=Cc2ccc(F)cc2)C(=O)c2ccccc21`, the TGI with MALME-3M melanoma, in the assay on SK-MEL-28 melanoma, in the assay with COLO 205 colon, in the assay with SNB-19 CNS, in the assay on U251 CNS and with OVCAR-8 ovarian was greater than 100 µM throughout. Further, the figures for the TGI with 786-0 renal, in the assay on SNB-75 CNS and in the assay on EKVX NSCLC were greater than 100 µM, 95.4 µM and greater than 100 µM, respectively.
